Values after ≈ are worked out from the molar mass of the structure shown. Values belong to the molecule of their own block, whether it stands above or below them.
Key:
[1] = system: MV4-11; assay: Anti-proliferative activity against human MV4-11 cells harboring MLL fusion protein assessed as inhibition of cell viability treated for 72 hrs by CCK-8 assay; assay type: functional, cell-based; details: MV4-11, 72 h
[2] = molecular target: Histone-lysine N-methyltransferase 2A/WDR5 (Homo sapiens, UniProt P61964); assay: Inhibition of MLL1-WDR5 (unknown origin) interaction using 10mer-Thr-FAM as substrate by fluorescence polarization based competitive binding assay; assay type: protein assay
[3] = Metabolic stability of compound in rat liver microsome assessed as intrinsic clearance at 1 uM measured upto 45 mins by LCMS analysis; assay type: ADME, microsomes
[4] = Metabolic stability of compound in rat liver microsome assessed as half life at 1 uM measured upto 45 mins by LCMS analysis; assay type: ADME, microsomes
[5] = Cmax in CD-1 mouse at 10 mg/kg, po measured 0.083 to 24 hrs post-treatment by LC-MS/MS analysis; assay type: ADME, organism-based; parameters: time lower 0.083 hrs, dose 10 mg/kg, time upper 24 hrs, route po; details: in vivo
[6] = Volume of distribution at steady state in CD-1 mouse at 3 mg/kg, iv measured 0.083 to 24 hrs post-treatment by LC-MS/MS analysis; assay type: ADME, organism-based; details: in vivo, time 0.083-24 hrs; for Vdss: mouse, iv, 3 mg/kg
[7] = AUC (0 to infinity) in CD-1 mouse at 3 mg/kg, iv measured 0.083 to 24 hrs post-treatment by LC-MS/MS analysis; assay type: ADME, organism-based; parameters: time upper 24 hrs, time lower 0.083 hrs, dose 3 mg/kg, route iv; details: in vivo; for AUC: mouse
[8] = Oral bioavailability in CD-1 mouse at 10 mg/kg measured 0.083 to 24 hrs post-treatment by LC-MS/MS analysis; assay type: ADME, organism-based; details: in vivo, time 0.083-24 hrs
[9] = system: K562; assay: Anti-proliferative activity against human K562 cells assessed as inhibition of cell proliferation incubated for 5 days by Cell Titre Glo luminescent assay; assay type: functional; details: time 5 day
[10] = Kinetic solubility of compound in PBS at pH 7.4 at 100 uM incubated for 1 hr by UV-visible spectroscopy analysis; assay type: physicochemical
[11] = AUC (0 to infinity) in CD-1 mouse at 10 mg/kg, po measured 0.083 to 24 hrs post-treatment by LC-MS/MS analysis; assay type: ADME, organism-based; parameters: dose 10 mg/kg, time upper 24 hrs, time lower 0.083 hrs, route po; details: in vivo
[12] = system: MOLM-13; assay: Anti-proliferative activity against human MOLM-13 cells assessed as inhibition of cell proliferation incubated for 5 days by Cell Titre Glo luminescent assay; assay type: functional; details: time 5 day
[13] = system: MV4-11; assay: Anti-proliferative activity against human MV4-11 cells assessed as inhibition of cell proliferation incubated for 5 days by Cell Titre Glo luminescent assay; assay type: functional; details: time 5 day
[14] = Clearance in CD-1 mouse at 3 mg/kg, iv measured 0.083 to 24 hrs post-treatment by LC-MS/MS analysis; assay type: ADME, organism-based; details: in vivo, time 0.083-24 hrs
[15] = molecular target: T1, WD repeat-containing protein 5 (Homo sapiens, UniProt P61964); assay: Competitive binding affinity to N-terminal 6xHis-SUMO-tagged human WDR5 (22 to 334 residues) expressed in Escherichia coli BL21-Gold (DE3) cells assessed as inhibition constant using 10-mer-Thr-FAM peptide as substrate incubated for 1 hr by Lantha Screen based TR-FRET assay
[16] = Half life in CD-1 mouse at 10 mg/kg, po measured 0.083 to 24 hrs post-treatment by LC-MS/MS analysis; assay type: ADME, organism-based; details: mouse, in vivo, po, 10 mg/kg, time 0.083-24 hrs
[17] = Clearance in CD-1 mouse at 3 mg/kg, iv measured 0.083 to 24 hrs post-treatment by LC-MS/MS analysis; details: in vivo, BLD = below limit of detection
[18] = molecular target: T1, WD repeat-containing protein 5; assay: Inhibition of N-terminal 6xHis-SUMO-tagged human WDR5 (22 to 334 residues) expressed in Escherichia coli BL21-Gold (DE3) cells assessed as inhibition constant incubated for 1 hr by TR-FRET assay
[19] = Acute toxicity in CD-1 mouse assessed as lethality at 3 mg/kg, iv measured 0.083 to 24 hrs post-treatment by LC-MS/MS analysis; assay type: organism-based; details: in vivo, time 0.083-24 hrs
[20] = Effective permeability of compound in PBS at pH 7.4 at 100 uM incubated for 5 hrs by PAMPA assay; assay type: ADME; details: pH 7.4, 5 h
[21] = Acute toxicity in CD-1 mouse assessed as reduced locomotive activity at 3 mg/kg, iv measured 0.083 to 24 hrs post-treatment by LC-MS/MS analysis; assay type: organism-based; details: in vivo, time 0.083-24 hrs
[22] = Kinetic aqueous solubility of compound at pH 7.4; assay type: physicochemical; details: buffer
[23] = Acute toxicity in CD-1 mouse assessed as lowered body temperature at 3 mg/kg, iv measured 0.083 to 24 hrs post-treatment by LC-MS/MS analysis; assay type: organism-based; details: in vivo, time 0.083-24 hrs
[24] = molecular target: T1, WD repeat-containing protein 5; assay: Inhibition of 5- FAM labeled tracer binding to N-terminal His6-SUMO-tagged WDR5 (24 to 334 residues) (unknown origin) expressed in Escherichia coli Rosetta 2 (DE3) cells incubated for 3 hrs by fluorescence polarization based competitive binding assay

SMILES: CN1CCN(c2cc(F)c(-c3ccc(NC(=O)N(C)C)cc3)cc2Nc2ncnc(Cl)c2N)CC1
IC50 [1]: 12600 nM
IC50 [2]: 29 nM

SMILES: CCn1cc(-c2cc(Cn3ccnc3C)cc3c2CCN([C@@H](C)c2cc(OC)ccn2)C3=O)c(C(F)(F)F)n1 (stereo in doubt; 38)
microsomal CLint at 1 µM ([3]; liver microsomes, read-out: CLH): 31 µL/min/mg
half-life at 1 µM ([4]; liver microsomes): 22 min
Cmax ([5]; CD-1, mouse, read-out: Cmax): 2010 ng/mL
Vd ([6]; CD-1, mouse, read-out: Vdss): 2.3 L/kg
AUC(0-inf) ([7]; CD-1, mouse): 707 ng·h/mL
bioavailability ([8]; CD-1, mouse): 73%
GI50 ([9]; 120 h): 1900 nM
solubility kinetic at 1 h, 100 µM ([10]; PBS, pH 7.4, read-out: Kinetic_solubility): 86 µM (≈ 46.3 µg/mL)
AUC(0-inf) ([11]; CD-1, mouse): 1710 ng·h/mL
GI50 ([12]; 120 h): 19 nM
GI50 ([13]; 120 h): 9.7 nM
clearance [14]: 76 mL/min/kg

SMILES: CCn1cc(-c2cc(Cn3ccnc3C)cc3c2CCN([C@@H](C)c2cc(OC)ccn2)C3=O)c(C(F)(F)F)n1 (stereo in doubt; 34)
CLH ([3]; microsomes, 0.75 h, 1 µM): 60 µL/min/mg
t1/2 ([4]; microsomes, 0.75 h, 1 µM): 12 min
Cmax ([5]; mouse): 279 ng/mL
Vdss [6]: 3.8 L/kg
AUC [7]: 429 ng·h/mL
F ([8]; mouse, po, 10 mg/kg): 28%
GI50 ([9]; Homo sapiens, K562, 120 h): 2200 nM
Kinetic_solubility ([10]; buffer, pH 7.4, 1 h, 100 µM): 80 µM
AUC ([11]; mouse): 397 ng·h/mL
GI50 ([12]; Homo sapiens, MOLM-13, 120 h): 26 nM
Ki [15]: < 0.02 nM
GI50 ([13]; Homo sapiens, MV4-11, 120 h): 11 nM
t1/2 [16]: 72 min

SMILES: COc1cc(CN2CCc3c(cc(Cn4ccn(C)c4=N)cc3-c3ccc(F)cc3C)C2=O)cc(OC)c1
CL [17]: Bld
Vdss [6]: 16 L/kg
AUC [7]: 642 ng·h/mL
Ki [18]: < 0.02 nM
Activity [19]: Toxic
GI50 ([9]; Homo sapiens, K562, 120 h): 8000 nM
GI50 ([12]; Homo sapiens, MOLM-13, 120 h): 78 nM
GI50 ([13]; Homo sapiens, MV4-11, 120 h): 38 nM
permeability [20]: < 0.6 10^-6 cm/s
Activity [21]: Toxic
Kinetic_solubility [22]: 29 µM
Activity [23]: Toxic

Ki [24]: < 1 nM
SMILES: CC[C@@H]1NC(=O)[C@H](CCCNC(=N)NC)NC(=O)[C@](C)(NC(=O)C(C)C)CCNC(=O)[C@@H](c2ccccc2)NC1=O

From ChEMBL document CHEMBL5154875, “Discovery of Potent Orally Bioavailable WD Repeat Domain 5 (WDR5) Inhibitors Using a Pharmacophore-Based Optimization” (J Med Chem, 2022)
